The assay concerns the target E. coli DNA primase (Escherichia coli, UniProt P0ABS5). Nature of the assay: Fluorescence-based E. coli DNA primase HTS assay in the presence of helicase (SYBR Green II). Conditions: for inhibition of primase activity: 50 mM salt. Type of assay: biochemical. As for the experimental part: The reaction was carried out on a Costar 384-well black plate. The reaction volume was 30 μl. The final concentrations in the reaction were 50 mM Tris-HCl, pH 7.5, 10 mM Mg(OAc)2, 10 mM DTT, 25 mM potassium glutamate, 0.003% Brij-35, 200 nM DNA, 25 nM helicase, 75 nM E. coli DNA primase, 200 μM ATP and 200 μM GTP. To perform the HTS assay, 2 μl of compound/DMSO solution or aqueous DMSO solution was incubated with 23 μl of a reaction premix at room temperature for 15 min. The reaction premix was a 1.3× concentrated reaction solution without NTPs. After the incubation, 5 μl of a substrate solution with 1.2 mM ATP and 1.2 mM GTP were added to initiate the reaction. The reaction was incubated at room temperature for 40 min. Then 25 μl of a 30×SYBR Green II solution with 1.2 M NaCl was added and the fluorescence was measured (excitation at 485 nm, emission at 535 nm).
A dideoxy NTP was used as a positive inhibitory control for the primase reaction. […] Since ddATP competes with NTP (ATP in this case) in the primase reaction, the IC50 value was dependent on the substrate (ATP) concentration. Under the HTS conditions used, the IC50 of ddATP was 10 μM

E. coli DNA primase, sequence (P0ABS5 whole entry): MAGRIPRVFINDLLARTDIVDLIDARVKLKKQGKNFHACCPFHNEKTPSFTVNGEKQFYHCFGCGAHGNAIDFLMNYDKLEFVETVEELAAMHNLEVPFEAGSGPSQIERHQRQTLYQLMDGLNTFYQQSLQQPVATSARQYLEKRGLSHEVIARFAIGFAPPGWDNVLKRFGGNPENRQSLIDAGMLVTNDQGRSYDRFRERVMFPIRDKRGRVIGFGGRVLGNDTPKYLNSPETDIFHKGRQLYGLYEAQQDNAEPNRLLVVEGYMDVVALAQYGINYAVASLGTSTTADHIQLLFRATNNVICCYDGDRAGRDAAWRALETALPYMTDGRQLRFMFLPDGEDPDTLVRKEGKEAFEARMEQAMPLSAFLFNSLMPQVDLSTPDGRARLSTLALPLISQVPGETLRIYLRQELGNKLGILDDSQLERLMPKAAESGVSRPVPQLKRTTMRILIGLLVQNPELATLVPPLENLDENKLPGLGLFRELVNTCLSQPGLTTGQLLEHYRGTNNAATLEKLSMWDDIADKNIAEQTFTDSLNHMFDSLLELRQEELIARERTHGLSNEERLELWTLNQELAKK

The term Km denotes the substrate concentration at which the rate is half of its maximum. Turning to “5′-CTCTCTCTCTCTCTCTCTCTCTCTCTCTCTCTCTGCAAAGC-3′ [DNA7]”, the Michaelis constant (Km) (DNA template concentration dependence, FIG. 5, read-out: apparent Km for DNA) amounted to 105 nM.

For `[Cl-].[K+]` [KCl], the “inhibition of primase activity” value is reported as “approximately 50%”.

With `[Cl-].[Na+]` [NaCl], the “inhibition of primase activity” value is reported as “approximately 50%”.

A word on the IC50: it is the midpoint of a concentration-inhibition curve. For `Nc1ncnc2c1ncn2[C@H]1CC[C@@H](COP(=O)(O)OP(=O)(O)OP(=O)(O)O)O1` [ddATP], for the setting “HTS conditions, 200 μM ATP and 200 μM GTP, IC50 dependent on ATP concentration (competes with ATP), read-out: IC50 of inhibition of primase activity”, the IC50 came out at 10 µM.

Source of the values: US20070092879A1, “Fluoresence-based dna primase assays” (AstraZeneca AB, priority 2003, published 2007).
